According to article PMC7694773, “Synthesis, 3D-QSAR, and Molecular Modeling Studies of Triazole Bearing Compounds as a Promising Scaffold for Cyclooxygenase-2 Inhibition” (Pharmaceuticals, 2020):
“And” between values parts separate entries of the source, which are not always exact repeats. Identical values can stand only once. Like-named read-outs stand apart in the source and are kept apart here.

Columns and labels:
[1] = molecular target: T1, human recombinant COX-2 (Homo sapiens, UniProt P35354); experiment: In vitro COX-2 inhibition, enzyme immunoassay kit (Cayman item no. 560131); type: biochemical
T1 construct: purchased Cayman Chemical 560131
T1 sequence (P35354 18-604): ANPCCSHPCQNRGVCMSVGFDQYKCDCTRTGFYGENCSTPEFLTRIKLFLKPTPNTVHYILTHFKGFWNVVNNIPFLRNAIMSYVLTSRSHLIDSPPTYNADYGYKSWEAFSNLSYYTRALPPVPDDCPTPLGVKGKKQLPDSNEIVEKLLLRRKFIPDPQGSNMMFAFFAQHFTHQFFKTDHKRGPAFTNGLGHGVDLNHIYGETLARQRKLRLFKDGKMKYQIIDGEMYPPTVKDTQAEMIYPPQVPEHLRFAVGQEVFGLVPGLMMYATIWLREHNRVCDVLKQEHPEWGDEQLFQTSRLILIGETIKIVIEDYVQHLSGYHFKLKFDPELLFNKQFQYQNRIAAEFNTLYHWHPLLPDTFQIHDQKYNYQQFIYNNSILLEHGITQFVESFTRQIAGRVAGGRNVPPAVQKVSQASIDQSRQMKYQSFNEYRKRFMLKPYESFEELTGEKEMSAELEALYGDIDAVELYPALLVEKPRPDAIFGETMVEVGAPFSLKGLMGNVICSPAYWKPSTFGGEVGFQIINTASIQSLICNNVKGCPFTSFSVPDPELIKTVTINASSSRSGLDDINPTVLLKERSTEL
Excerpt: (§1) The in vitro COX-1/COX-2 isozyme inhibition studies measure the ability of tested compounds to inhibit bovine COX-1 and human recombinant COX-2 using an enzyme immunoassay (COX inhibitor screening assay kit, item no. 560131) according to the manufacturer’s instructions. […].

[2] = molecular target: T2, bovine COX-1 (Ovis aries, UniProt P05979); experiment: In vitro COX-1 inhibition, enzyme immunoassay kit (Cayman item no. 560131); type: biochemical; conditions: mean of two determinations
T2 construct: purchased Cayman Chemical 560131
T2 sequence (P05979 25-600): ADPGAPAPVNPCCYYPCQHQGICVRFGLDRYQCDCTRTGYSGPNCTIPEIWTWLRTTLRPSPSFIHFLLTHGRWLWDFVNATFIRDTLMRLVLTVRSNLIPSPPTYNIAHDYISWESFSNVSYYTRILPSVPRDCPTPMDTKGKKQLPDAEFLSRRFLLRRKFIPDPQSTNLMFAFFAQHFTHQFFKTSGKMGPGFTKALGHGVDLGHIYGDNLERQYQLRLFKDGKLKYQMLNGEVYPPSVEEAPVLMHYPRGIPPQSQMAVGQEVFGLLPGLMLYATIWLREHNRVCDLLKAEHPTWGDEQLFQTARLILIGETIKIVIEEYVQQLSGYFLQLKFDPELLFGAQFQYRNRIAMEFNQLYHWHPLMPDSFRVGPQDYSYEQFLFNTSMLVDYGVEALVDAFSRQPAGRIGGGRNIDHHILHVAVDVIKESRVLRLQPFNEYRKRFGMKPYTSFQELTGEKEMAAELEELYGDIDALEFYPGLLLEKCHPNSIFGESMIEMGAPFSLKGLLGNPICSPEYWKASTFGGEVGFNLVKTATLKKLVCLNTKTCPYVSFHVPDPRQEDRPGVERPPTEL
Excerpt: as §1

[3] = molecular target: T3, egg albumin (Gallus gallus, UniProt P01012); experiment: In situ anti-inflammatory assay: inhibition of protein (albumin) denaturation
T3 sequence (P01012 1-386): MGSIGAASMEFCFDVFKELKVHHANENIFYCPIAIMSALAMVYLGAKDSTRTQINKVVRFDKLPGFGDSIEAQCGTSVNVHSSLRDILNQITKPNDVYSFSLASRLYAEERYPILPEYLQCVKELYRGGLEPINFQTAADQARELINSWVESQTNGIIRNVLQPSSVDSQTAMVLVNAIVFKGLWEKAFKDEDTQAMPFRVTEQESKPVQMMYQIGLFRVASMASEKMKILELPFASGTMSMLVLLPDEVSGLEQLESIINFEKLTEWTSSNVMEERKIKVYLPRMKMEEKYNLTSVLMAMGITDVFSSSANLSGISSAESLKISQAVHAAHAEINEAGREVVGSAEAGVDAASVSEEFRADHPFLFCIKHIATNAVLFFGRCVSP
Experimental: Protein denaturation is used for the evaluation of anti-inflammatory activity. In this methodology, generally, tertiary and secondary protein structures will typically be destroyed by the application of an external molecule or stress. The biological function of most bio-proteins is lost if it is denatured. It is well reported that a basis of inflammation is denaturation of protein.
The reaction mixture is molecules with serial dilutions (1000, 100, 10, 1, 0.1 µM), phosphate buffered saline (PBS; pH 6.4), and egg albumin. The control used was double distilled water (equal volume). […] After attaining ambient temperature, the absorbance of samples was measured spectrophotometrically at 660 nm using vehicle as blank. […] The experiment was performed in triplicate. Percent inhibition of protein denaturation was calculated using the Equation Inhibition (%) of protein denaturation inhibition (%) = (AC − AS)/AC × 100 where AC: absorbance of control, AS: absorbance of sample.

[4] = human recombinant COX-2, mean of two determinations, read-out: IC50 COX-2
[5] = pIC50 = −Log (IC50) of the COX-2 IC50, read-out: Activity (experimental pIC50, COX-2) (converted)

Structure (SMILES) | COX-2 S.I. (selectivity index, COX-1 IC50/COX-2 IC50) [1] | IC50 [1, 4] [nM] | IC50 [1, 5] | IC50 [2] [nM] | melting point [°C] | LogIC50 protein denaturation ([3]; GraphPad prism curve fit, IC50 in µM (Figure 3)) | IC50 ([3]; non-linear regression, sigmoidal dose-inhibition fit, GraphPad prism) | inhibition at 1000 µM ([3]; protein denaturation, conc. 1000 µM, three replicates, read-out: % of inhibition ± SEM at conc. 1000) [%] | % of inhibition ± SEM at conc. 0.1 ([3]; protein denaturation, conc. 0.1 (µM), three replicates) [%] | % of inhibition ± SEM at conc. 1 ([3]; protein denaturation, conc. 1 (µM), three replicates) [%] | % of inhibition ± SEM at conc. 10 ([3]; protein denaturation, conc. 10 (µM), three replicates) [%] | % of inhibition ± SEM at conc. 100 ([3]; protein denaturation, conc. 100 (µM), three replicates) [%]
O=C(CCl)Sc1nnc(COc2ccc3ccccc3c2)n1N=Cc1cccc([N+](=O)[O-])c1 [Compound 10c] | 84.3 | 120 | 120 nM | 10100 | – | – | – | – | – | – | – | –
O=C(CCl)Sc1nnc(COc2ccc3ccccc3c2)n1N=Cc1ccccc1O [Compound 10b] | 70.6 | 140 | 140 nM | 9890 | – | – | – | – | – | – | – | –
COc1ccc(C=Nn2c(COc3ccc4ccccc4c3)nnc2SC(=O)CCl)cc1 [Compound 10d] | 94.1 | 110 | 110 nM | 10300 | – | – | – | – | – | – | – | –
Nc1ncc(Sc2nnc(COc3ccc4ccccc4c3)n2N=Cc2cccc([N+](=O)[O-])c2)o1 [Compound 11c, 5-((5-((naphthalen-2-yloxy)methyl)-4-((3-nitrobenzylidene)amino)-4H-1,2,4-triazol-3-yl)thio)oxazol-2-amine] | 252.6 | 50 | 50 nM and 49 nM | 12600 | 196 to 198 | – | – | – | – | – | – | –
COc1ccc(C=Nn2c(COc3ccc4ccccc4c3)nnc2Sc2cnc(N)o2)cc1 [Compound 11d, 5-((4-((4-methoxybenzylidene)amino)-5-((naphthalen-2-yloxy)methyl)-4H-1,2,4-triazol-3-yl)thio)oxazol-2-amine] | 192.2 | 60 | 60.1 nM | 11500 | 70 to 71 | – | – | – | – | – | – | –
COc1ccc(C=Nn2c(COc3ccc4ccccc4c3)nnc2Sc2cnc(N)s2)cc1 [Compound 12d, 5-((4-((4-methoxybenzylidene)amino)-5-((naphthalen-2-yloxy)methyl)-4H-1,2,4-triazol-3-yl)thio)thiazol-2-amine] | 311.0 and 325.0 | 40 | 41.8 nM and 40.1 nM | 13000 | 69 to 70 | -0.008534 | 981 nM and 980 nM | 91.2 | 29.21±1.12 | 59.20±1.34 | 72.12±1.27 | 89.31±1.26
O=C(CCl)Sc1nnc(COc2ccc3ccccc3c2)n1N=Cc1ccccc1 [Compound 10a] | 74.8 | 130 | 130 nM | 9720 | – | – | – | – | – | – | – | –
Nc1ncc(Sc2nnc(COc3ccc4ccccc4c3)n2N=Cc2cccc([N+](=O)[O-])c2)s1 [Compound 12c, 5-((5-((naphthalen-2-yloxy)methyl)-4-((3-nitrobenzylidene)amino)-4H-1,2,4-triazol-3-yl)thio)thiazol-2-amine] | 325.0 and 311.8 | 40 | 40.1 nM | 12500 | 182 to 184 | – | – | – | – | – | – | –
